The results in this text go back to patent US8722683B2, “Benzodioxole piperazine compounds” (Hoffmann LA-Roche Inc., priority 2011, dated 2014).

Read-outs that look alike come from different tables or passages of the source.

In experiment [1] the target is 5-HT2A receptor (Homo sapiens (Human), UniProt P28223). As to the kind of experiment: Radioligand binding ([3H]-ketanserin) to cloned 5-HT2A receptor expressed in HEK-293 EBNA cells. As for the experimental part:
(§1) HEK293 EBNA cells were transiently transfected with expression plasmids encoding for the human D2 or D3 or for the human 5-HT2A receptor, respectively. The cells were harvested 48 h post-transfection, washed three times with cold PBS and stored at −80° C. prior to use. The pellet was suspended in cold 50 mM Tris-HCl buffer containing 10 mM EDTA (pH 7.4) and was homogenized with a Polytron (Kinematica AG, Basel, Switzerland) for 20-30 sec at 12.000 rpm. After centrifugation at 48.000×g for 30 min at 4° C., the pellet was resuspended in cold 10 mM Tris-HCl buffer containing 0.1 mM EDTA (pH 7.4), homogenized, and centrifuged as above. This pellet was further resuspended in a smaller volume of ice cold 10 mM Tris-HCl buffer containing 0.1 mM EDTA (pH 7.4) and homogenized with a Polytron for 20-30 sec at 12.000 rpm. The protein content of this homogenate was determined with the Bio-Rad (Bradford) Protein Assay (Biorad Laboratories GmbH, München, Germany) according to the instructions of the manufacturer using gamma globulin as the standard. This homogenate was stored at −80° C. in aliquots and thawed immediately prior to use.
(§2) Radioligand Binding Assay
(§3) Aliquots of membrane preparations were thawed at RT, resupended in assay buffer (D2, D3: 50 mM Tris-HCl, 120 mM NaCl, 5 mM MgCl2, 1 mM EDTA, 5 mM KCl, 1.5 mM CaCl2, pH=7.4; 5-HT2A: 50 mM Tris-HCl, 10 mM MgCl2, 1 mM EGTA, pH=7.4), homogenized with a Polytron for 20-30 sec at 12.000 rpm and adjusted to a final concentration of approximately 7.5 μg protein/well (D2, D3) and 15 μg protein/well (5-HT2A), respectively.
(§4) The binding affinity (Ki) of the compounds was determined using radioligand binding. […] The nonspecific binding was determined with equally composed reaction mixtures in the presence of 10 μM unlabelled spiperone. Per well 45 μl of Microscint 40 (Perkin Elmer, Schwerzenbach, Switzerland) was added, plates for sealed, shaken for 20 min and counted for 3 min on a Topcount Microplate Scintillation Counter (Canberra Packard SA, Zürich, Switzerland) with quenching correction.
(§5) The CPM value for each duplicate of a concentration of competing compound was averaged (y1), then the % specific binding was calculated according to the equation (((y1−non-specific)/(total binding−non-specific))×100). Graphs were plotted with the % specific binding using XLfit, a curve fitting program that iteratively plots the data using Levenberg-Marquardt algorithm. The single site competition analysis equation used was y=A+((B−A)/(1+((x/C)D))), where y is the % specific binding, A is the minimum y, B is the maximum y, C is the IC50, x is the log 10 of the concentration of the competing compound and D is the slope of the curve (the Hill Coefficient). […] The affinity constant (Ki) was calculated using the Cheng-Prusoff equation Ki=(IC50/1+([L]/Kd), where [L] is the concentration of radioligand and Kd is the dissociation constant of the radioligand at the receptor as determined by the saturation isotherm.

For experiment [2], the target named is D2 receptor (Homo sapiens (Human), UniProt P14416). As to the kind of experiment: Radioligand binding ([3H]-spiperone) to cloned D2 receptor expressed in HEK-293 EBNA cells. The settings on record: HEK293 EBNA membranes, 0.7 nM [3H]-spiperone. How it is done:
as §1, §2, §3, §4, §5

For experiment [3], the target named is D3 receptor (Homo sapiens (Human), UniProt P35462). In words: Radioligand binding ([3H]-spiperone) to cloned D3 receptor expressed in HEK-293 EBNA cells. The settings on record: HEK293 EBNA membranes, 0.5 nM [3H]-spiperone. How it is done: as §1, §2, §3
Chain of D3 receptor (P35462 whole entry): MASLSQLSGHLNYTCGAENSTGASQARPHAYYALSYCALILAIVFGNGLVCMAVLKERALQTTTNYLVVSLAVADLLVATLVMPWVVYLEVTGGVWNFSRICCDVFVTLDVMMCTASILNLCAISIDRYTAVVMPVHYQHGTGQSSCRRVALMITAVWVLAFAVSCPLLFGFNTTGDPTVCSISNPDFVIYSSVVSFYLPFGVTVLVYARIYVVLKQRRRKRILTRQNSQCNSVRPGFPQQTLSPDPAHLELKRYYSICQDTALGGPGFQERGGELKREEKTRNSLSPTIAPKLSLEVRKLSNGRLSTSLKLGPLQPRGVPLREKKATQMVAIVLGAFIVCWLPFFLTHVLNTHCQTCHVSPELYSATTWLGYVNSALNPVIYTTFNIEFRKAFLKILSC
The binding affinity (Ki) of the compounds was determined using radioligand binding. […] At the end of the incubation, the reaction mixtures were filtered on to unifilter 96-well white microplates with bonded GF/C filters (Packard BioScience, Zürich, Switzerland; preincubated for 1 h in 0.1% polyethylenimine (PEI) in assay buffer) with a Filtermate 196 harvester (Packard BioScience) and washed 3 times with cold assay buffer. The nonspecific binding was determined with equally composed reaction mixtures in the presence of 10 μM unlabelled spiperone. Per well 45 μl of Microscint 40 (Perkin Elmer, Schwerzenbach, Switzerland) was added, plates for sealed, shaken for 20 min and counted for 3 min on a Topcount Microplate Scintillation Counter (Canberra Packard SA, Zürich, Switzerland) with quenching correction.
as §5

Setting [4] is: human 5-HT2A receptor, HEK293 EBNA membranes, 1.1 nM [3H]-ketanserin.

Chain of D2 receptor (P14416 whole entry): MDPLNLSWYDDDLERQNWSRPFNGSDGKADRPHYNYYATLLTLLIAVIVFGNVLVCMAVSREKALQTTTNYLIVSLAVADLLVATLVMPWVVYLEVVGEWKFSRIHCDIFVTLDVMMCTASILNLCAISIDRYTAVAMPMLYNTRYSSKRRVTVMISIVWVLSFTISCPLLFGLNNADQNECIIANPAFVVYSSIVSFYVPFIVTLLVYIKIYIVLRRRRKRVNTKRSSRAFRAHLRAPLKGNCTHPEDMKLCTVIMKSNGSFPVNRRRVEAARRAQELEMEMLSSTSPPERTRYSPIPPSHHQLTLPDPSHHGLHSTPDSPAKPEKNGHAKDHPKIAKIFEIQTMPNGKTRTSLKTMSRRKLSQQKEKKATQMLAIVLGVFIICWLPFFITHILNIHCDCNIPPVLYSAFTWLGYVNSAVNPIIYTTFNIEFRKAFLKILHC
Chain of 5-HT2A receptor (P28223 whole entry): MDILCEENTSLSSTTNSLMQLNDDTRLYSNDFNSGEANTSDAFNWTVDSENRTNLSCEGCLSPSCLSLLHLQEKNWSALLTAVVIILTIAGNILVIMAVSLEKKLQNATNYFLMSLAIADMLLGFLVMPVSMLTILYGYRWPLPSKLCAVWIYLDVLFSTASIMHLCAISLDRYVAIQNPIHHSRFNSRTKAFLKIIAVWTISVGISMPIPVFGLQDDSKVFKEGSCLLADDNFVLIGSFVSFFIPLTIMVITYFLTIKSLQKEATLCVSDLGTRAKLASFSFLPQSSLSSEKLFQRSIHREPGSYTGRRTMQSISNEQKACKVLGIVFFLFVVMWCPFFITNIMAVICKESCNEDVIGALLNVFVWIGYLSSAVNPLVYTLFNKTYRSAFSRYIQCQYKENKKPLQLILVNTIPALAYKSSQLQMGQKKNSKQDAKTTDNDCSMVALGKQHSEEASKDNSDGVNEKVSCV

Usually Ki stands for a dissociation constant, usually derived from enzyme kinetics or from competition with a known ligand. For the compound `O=C(C[C@H]1CCCOC1)N[C@H]1CC[C@H](CCN2CCN(c3cccc4c3OCO4)CC2)CC1` (single isomer, unassigned) [Example 33, Trans-N-{4-[2-(4-Benzo[1,3]dioxol-4-yl-piperazin-1-yl)-ethyl]-cyclohexyl}-2-(R) or (S)-tetrahydro-pyran-3-yl-acetamide], the inhibitory constant (Ki) came out at 24.4 nM in experiment [1] (setting [4]) and 184 nM in experiment [2].
Consider `O=C(C[C@@H]1COCCO1)N[C@H]1CC[C@H](CCN2CCN(c3cccc4c3OCO4)CC2)CC1` (single isomer, unassigned) [Example 5, Trans-N-{4-[2-(4-Benzo[1,3]dioxol-4-yl-piperazin-1-yl)-ethyl]-cyclohexyl}-2-(R) or (S)-[1,4]dioxan-2-yl-acetamide], for which, in experiment [1] (setting [4]), the Ki worked out at 12.3 nM.
On to `O=C(CC1COCCO1)N[C@H]1CC[C@H](CCN2CCN(c3cccc4c3OCO4)CC2)CC1` (stereo partly drawn) [Example 3, Trans-N-{4-[2-(4-Benzo[1,3]dioxol-4-yl-piperazin-1-yl)-ethyl]-cyclohexyl}-2-[1,4]dioxan-2-yl-acetamide], for which the figures for the Ki in experiment [1] and in experiment [2] were 11.8 nM and 198 nM, respectively.
Take `O=C(C[C@H]1COCCO1)N[C@H]1CC[C@H](CCN2CCN(c3cccc4c3OCO4)CC2)CC1` (single isomer, unassigned) [Example 4, Trans-N-{4-[2-(4-Benzo[1,3]dioxol-4-yl-piperazin-1-yl)-ethyl]-cyclohexyl}-2-(S) or (R)[1,4]dioxan-2-yl-acetamide]: the inhibition constant (Ki) in experiment [1] (setting [4]) was 7.78 nM.
Turning to `[2H]C1([2H])Oc2cccc(N3CCN(CC[C@H]4CC[C@H](NC(=O)C[C@H]5COCCO5)CC4)CC3)c2O1` [Example 78, N-trans-{4-[2-(4-Benzo(2,2-D2)-[1,3]dioxol-4-yl-piperazin-1-yl)-ethyl]-cyclohexyl}-2-(S)-[1,4]dioxan-2-yl-acetamide], the Ki in experiment [1] (setting [4]) was 13.4 nM; in experiment [2], 198 nM.
`CC(C)(O)CC(=O)N[C@H]1CC[C@H](CCN2CCN(c3cccc4c3OCO4)CC2)CC1` [Example 27, Trans-N-{4-[2-(4-Benzo[1,3]dioxol-4-yl-piperazin-1-yl)-ethyl]-cyclohexyl}-3-hydroxy-3-methyl-butyramide]: the Ki amounted to 1.56 nM in experiment [3] and 76.8 nM in experiment [2].
In the case of `O=C(N[C@H]1CC[C@H](CCN2CCN(c3cccc4c3OCO4)CC2)CC1)C1(O)CCCC1` [Example 36, 1-Hydroxy-cyclopentanecarboxylic acid-trans-N-{4-[2-(4-benzo[1,3]dioxol-4-yl-piperazin-1-yl)-ethyl]-cyclohexyl}-amide], the Ki in experiment [3] came out at 11 nM; in experiment [2] it was 124 nM.
Turning to `O=C(N[C@H]1CC[C@H](CCN2CCN(c3cccc4c3OCO4)CC2)CC1)c1ccnc2ccccc12` [Example 47, Quinoline-4-carboxylic acid-trans-N-{4-[2-(4-benzo[1,3]dioxol-4-yl-piperazin-1-yl)-ethyl]-cyclohexyl}-amide], the Ki in experiment [3] is 2.4 nM; in experiment [2] it was 509 nM.
`O=C(N[C@H]1CC[C@H](CCN2CCN(c3cccc4c3OCO4)CC2)CC1)c1cccnc1` [Example 48, Trans-N-{4-[2-(4-Benzo[1,3]dioxol-4-yl-piperazin-1-yl)-ethyl]-cyclohexyl}-nicotinamide]: the Ki in experiment [3] was found to be 1.79 nM; in experiment [2], 88.2 nM.
Consider `CC(=O)N[C@H]1CC[C@H](CCN2CCN(c3cccc4c3OCO4)CC2)CC1` [Example 1, Trans-N-{4-[2-(4-Benzo[1,3]dioxol-4-yl-piperazin-1-yl)-ethyl]-cyclohexyl}-acetamide], for which the results for the Ki in experiment [3] and in experiment [2] were 1.15 nM and 67.3 nM, respectively.
In the case of `Cc1cc(CC(=O)N[C@H]2CC[C@H](CCN3CCN(c4cccc5c4OCO5)CC3)CC2)on1` [Example 13, Trans-N-{4-[2-(4-Benzo[1,3]dioxol-4-yl-piperazin-1-yl)-ethyl]-cyclohexyl}-2-(3-methyl-isoxazol-5-yl)-acetamide], the values for the Ki in experiment [3] and in experiment [2] were 1.34 nM and 314 nM, respectively.
`N#Cc1ccc(C(=O)N[C@H]2CC[C@H](CCN3CCN(c4cccc5c4OCO5)CC3)CC2)cc1` [Example 59, Trans-N-{4-[2-(4-Benzo[1,3]dioxol-4-yl-piperazin-1-yl)-ethyl]-cyclohexyl}-4-cyano-benzamide]: the results for the Ki in experiment [3] and in experiment [2] were 3.55 nM and 101 nM, respectively.
In the case of `O=S(=O)(CC(F)(F)F)N[C@H]1CC[C@H](CCN2CCN(c3cccc4c3OCO4)CC2)CC1` [Example 66, 2,2,2-Trifluoro-ethanesulfonic acid-trans-N-{4-[2-(4-benzo[1,3]dioxol-4-yl-piperazin-1-yl)-ethyl]-cyclohexyl}-amide], the Ki in experiment [3] is 1.88 nM; in experiment [2] it was 73.8 nM.
Consider `O=C(N[C@H]1CC[C@H](CCN2CCN(c3cccc4c3OCO4)CC2)CC1)C1CC(Cl)C1` (stereo partly drawn) [Example 60, 3-Chloro-cyclobutanecarboxylic acid-trans-N-{4-[2-(4-benzo[1,3]dioxol-4-yl-piperazin-1-yl)-ethyl]-cyclohexyl}-amide], for which the Ki in experiment [3] was 2.98 nM; in experiment [2] it was 81.1 nM.
With `[2H]C1([2H])Oc2cccc(N3CCN(CC[C@H]4CC[C@H](NC(=O)C(C)(C)O)CC4)CC3)c2O1` [Example 81, N-trans-{4-[2-(4-Benzo(2,2-D2)-[1,3]dioxol-4-yl-piperazin-1-yl)-ethyl]-cyclohexyl}-2-hydroxy-2-methyl-propionamide], the Ki in experiment [3] was 6.28 nM; in experiment [2], 97.2 nM.
Consider `O=C(CC1CC1)N[C@H]1CC[C@H](CCN2CCN(c3cccc4c3OCO4)CC2)CC1` [Example 8, Trans-N-{4-[2-(4-Benzo[1,3]dioxol-4-yl-piperazin-1-yl)-ethyl]-cyclohexyl}-2-cyclopropyl-acetamide], for which the figures for the Ki in experiment [3] and in experiment [2] were 1.23 nM and 142 nM, respectively.
With `O=C(Nc1ccc(Cl)cc1)N[C@H]1CC[C@H](CCN2CCN(c3cccc4c3OCO4)CC2)CC1` [Example 75, N-trans-1-{4-[2-(4-Benzo[1,3]dioxol-4-yl-piperazin-1-yl)-ethyl]-cyclohexyl}-3-(4-chloro-phenyl)-urea], the inhibition constant (Ki) in experiment [3] is 1.04 nM; in experiment [2], 158 nM.
With `O=C(N[C@H]1CC[C@H](CCN2CCN(c3cccc4c3OCO4)CC2)CC1)c1ccc(F)cc1` [Example 46, Trans-N-{4-[2-(4-Benzo[1,3]dioxol-4-yl-piperazin-1-yl)-ethyl]-cyclohexyl}-4-fluoro-benzamide], the inhibition constant Ki in experiment [3] amounted to 3.79 nM; in experiment [2], 82.5 nM.
For the compound `CS(=O)(=O)N[C@H]1CC[C@H](CCN2CCN(c3cccc4c3OCO4)CC2)CC1` [Example 34, Trans-N-{4-[2-(4-Benzo[1,3]dioxol-4-yl-piperazin-1-yl)-ethyl]-cyclohexyl}-methanesulfonamide], the Ki in experiment [3] worked out at 3.1 nM; in experiment [2] it was 145 nM.
For `CC(C)CC(=O)N[C@H]1CC[C@H](CCN2CCN(c3cccc4c3OCO4)CC2)CC1` [Example 18, Trans-N-{4-[2-(4-Benzo[1,3]dioxol-4-yl-piperazin-1-yl)-ethyl]-cyclohexyl}-3-methyl-butyramide], in that order: 2.28 nM and 133 nM.
With `[2H]C1([2H])Oc2cccc(N3CCN(CC[C@H]4CC[C@H](NC(=O)C(C)C)CC4)CC3)c2O1` [Example 80, N-trans-{4-[2-(4-Benzo(2,2-D2) [1,3]dioxol-4-yl-piperazin-1-yl)-ethyl]-cyclohexyl}-isobutyramide], the Ki stood at 2.23 nM in experiment [3] and 105 nM in experiment [2].
